Experimental data from patent US11707442B2, “Antibacterial and antifungal compounds” (The General Hospital Corporation, priority 2015, dated 2023).
≈ marks a conversion by molar mass, not a printed value. Entries after “also recorded” stand apart in the source; their conditions may differ. Where two headings read alike, the source gives them in different places.

Legend:
S. aureus = experiment: Minimal inhibitory concentration (MIC), broth microdilution; type: cell-based, Staphylococcus aureus; settings: for MIC: Staphylococcus aureus
Source text: (§1) Bacterial strains and growth conditions and persister isolation: methicillin-resistant S. aureus (MRSA) strain MW2 BAA-1707, vancomycin-resistant S. aureus strain VRS 1, 11 clinical S. aureus isolates, 8 clinical Enterococcus faecium isolates, Klebsiella pneumoniae WGLW2 (BEI Resources, Manassas, Va., USA), Acinetobacter baumannii ATCC 17978, Pseudomonas aeruginosa PA14, and Enterobacter aerogenes ATCC 13048 were used to test antimicrobial activity (See Table 1a). S. aureus and E. faecium strains were grown in tryptic soy broth (TSB) (BD, Franklin Lakes, N.J., USA) or brain-heart infusion (BHI) broth (BD, Franklin Lakes, N.J., USA), respectively at 37° C. at 225 rpm. K. pneumoniae, A. baumannii, P. aeruginosa, and E. aerogenes were grown in Luria Bertani (LB) broth (BD, Franklin Lakes, N.J., USA).
(§2) To test the bacterial MICs for compounds described herein, the total volume in each well was 100 μl of test compounds and bacterial cells in MH broth. […] The bacterial concentration was adjusted to an initial OD600 of 0.03. After incubation at 35° C. for 18 hrs, the absorbance was measured at 595 nm in accordance with CLSI document M07-A8. The MICs of antibiotics were determined by the standard microdilution method recommended by the Clinical and Laboratory Standards Institute.

E. faecium = experiment: MIC, broth microdilution; type: cell-based, Enterococcus faecium; settings: for MIC: Enterococcus faecium
Source text: as §1, §2

E. faecalis = experiment: MIC, broth microdilution; type: cell-based, Enterococcus faecalis; settings: result in words
Description: To test the bacterial MICs for compounds described herein, the total volume in each well was 100 μl of test compounds and bacterial cells in MH broth. Two-fold serial dilutions were carried out to get compounds in the concentration range 0.0625-64 μg/ml. The bacterial concentration was adjusted to an initial OD600 of 0.03. After incubation at 35° C. for 18 hrs, the absorbance was measured at 595 nm in accordance with CLSI document M07-A8. The MICs of antibiotics were determined by the standard microdilution method recommended by the Clinical and Laboratory Standards Institute.

[1] = test system: C. elegans infected with MRSA strain MW2; type: in vivo; settings: result in words
Description: The C. elegans-MRSA liquid infection assay has been described (Rajamuthiah et al. Plos One. 2014; 9(2):e89189). In brief, 4,500 glp-4 (bn2); sek-1(km4) L1 hatchlings were grown on SK-HB101 agar plates for 52 hours at the restrictive temperature of 25° C. until animals became sterile young adults and later harvested with M9 buffer. S. aureus MW2 was grown overnight at 37° C. in TSB, first under aerobic conditions and later shifted to anaerobic growth conditions at 37° C. The infection assay was performed in standard 384-well assay plates, in the presence of the compound being tested or 1% dimethyl sulfoxide (DMSO) as a control. Bacteria were added to the wells at a final OD600 of 0.06, followed by the use of a Complex Object Parametric Analyzer and Sorter (COPAS) large particle sorter (Union Biometrica, Holliston, Mass., USA) to transfer 15 adult worms to each well of an assay plate. After 5 days of incubation in a humidified chamber at 25° C., the bacteria and other debris were washed from the wells with a microplate washer and the worms were stained with the vital dye Sytox Orange (Life Technologies). After overnight incubation at 25° C. in a humidified chamber, the plates were imaged using an Image Xpress Micro automated microscope (Molecular Devices, Sunnyvale, Calif., USA), capturing both transmitted light and TRITC (535 nm excitation, 610 nm emission) fluorescent images with a 2× objective. The images from the infection assay were processed using the open source image analysis software CellProfiler and analysis modules as described previously. The ratio of Sytox worm area to bright field worm area, and the resultant percentage survival data, is calculated by the software for each well of the assay plates. The assay was performed in triplicate comparing the survival of worms at various concentrations of drugs.
Killing assays were carried out as described in Methods using S. aureus MRSA MW2 and 10 μg/ml retinoids, 10 μg/ml vancomycin (positive control), or 1% DMSO (negative control) at 25° C. for 5 days. Data are representative of three independent experiments. (B) Chemical structures of synthetic retinoids. (C) Growth of MRSA strain MW2 exposed to the indicated concentrations of compounds was quantified by measuring OD600 after 18 h in tryptic soy broth (TSB). (D) C. elegans infected with MRSA strain MW2 was treated with indicated concentrations of compounds. Percent survival of C. elegans was normalized to C. elegans treated with DMSO. (E-F) MRSA persisters prepared as described in Methods were treated with the indicated concentrations of each retinoid. Viability was measured by serial dilution and plating on TSA plates. The data points on the x-axis are below the level of detection (2×10^2 CFU/ml). (E,F) Results are shown as means±s.d.; n=3.

K. pneumonia WGLW2 = experiment: MIC, broth microdilution; type: cell-based, Klebsiella pneumoniae; settings: Klebsiella pneumoniae; K. pneumonia WGLW2; read-out: Minimum inhibitory concentration
Source text: as §1, §2

A. baumannii = experiment: MIC, broth microdilution; type: cell-based, Acinetobacter baumannii; settings: Acinetobacter baumannii, ATCC17978; A. baumannii ATCC 17978; read-out: Minimum inhibitory concentration
Source text: as §1, §2

P. aeruginosa = experiment: MIC, broth microdilution; type: cell-based, Pseudomonas aeruginosa; settings: Pseudomonas aeruginosa; P. aeruginosa PA14; read-out: Minimum inhibitory concentration
Source text: as §1, §2

E. aerogenes ATCC 13048 = experiment: MIC, broth microdilution; type: cell-based, Enterobacter aerogenes; settings: Klebsiella aerogenes, ATCC13048; E. aerogenes ATCC 13048; read-out: Minimum inhibitory concentration
Source text: as §1, §2

`COc1ccc(-c2ccc3cc(C(=O)O)ccc3c2)cc1C12CC3CC(CC(C3)C1)C2` [Adapalene, 6-(4-methoxy-3-tricyclo[3.3.1.13,7]dec-1-ylphenyl)-2-naphthalenecarboxylic acid] was tested, and the “direct inhibition of MRSA growth” value (S. aureus; MRSA MW2, result in words) was “did not inhibit; also recorded: did not have significant antimicrobial activity”, the “susceptibility of E. faecium” value (E. faecium; result in words) was “not inhibited” and the “susceptibility of E. faecalis” value (E. faecalis) was “not inhibited”. The “rescue of C. elegans from MRSA infection” value [1] was “nor did it protect”.

In the case of `Cc1onc(-c2ccccc2)c1C(=O)N[C@@H]1C(=O)N2[C@@H]1SC(C)(C)[C@@H]2C(=O)O` [Oxacillin], the MIC (S. aureus; S. aureus BF1, read-out: Minimum inhibitory concentration) is reported as > 64 µg/mL, the MIC (S. aureus; S. aureus BF2, read-out: Minimum inhibitory concentration) is reported as > 64 µg/mL and the MIC (S. aureus; S. aureus BF3, read-out: Minimum inhibitory concentration) is reported as 32 µg/mL (≈ 79.7 µM). The MIC (S. aureus; S. aureus BF4, read-out: Minimum inhibitory concentration) was 16 µg/mL (≈ 39.9 µM), the MIC (S. aureus; S. aureus BF5, read-out: Minimum inhibitory concentration) was > 64 µg/mL and the MIC (S. aureus; S. aureus BF6, read-out: Minimum inhibitory concentration) was 1 µg/mL (≈ 2.49 µM). The MIC (S. aureus; S. aureus BF7, read-out: Minimum inhibitory concentration) was > 64 µg/mL, the MIC (S. aureus; S. aureus BF8, read-out: Minimum inhibitory concentration) was > 64 µg/mL and the MIC (S. aureus; S. aureus BF9, read-out: Minimum inhibitory concentration) was 0.25 µg/mL (≈ 0.623 µM). For the same compound, the MIC (S. aureus; S. aureus BF10, read-out: Minimum inhibitory concentration) was > 64 µg/mL, the MIC (S. aureus; S. aureus BF11, read-out: Minimum inhibitory concentration) was > 64 µg/mL and the MIC (S. aureus; S. aureus MW2, read-out: Minimum inhibitory concentration) was 64 µg/mL (≈ 159 µM). For the same compound, the MIC (S. aureus; S. aureus VRS1, read-out: Minimum inhibitory concentration) was > 64 µg/mL, the MIC (S. aureus; Staphylococcus aureus clinical isolate BF1 (Table 5), read-out: Drug MIC) was > 64 µg/mL and the MIC (S. aureus; Staphylococcus aureus clinical isolate BF2 (Table 5), read-out: Drug MIC) was > 64 µg/mL. The MIC (S. aureus; Staphylococcus aureus clinical isolate BF3 (Table 5), read-out: Drug MIC) was 32 µg/mL (≈ 79.7 µM), the MIC (S. aureus; Staphylococcus aureus clinical isolate BF4 (Table 5), read-out: Drug MIC) was 16 µg/mL (≈ 39.9 µM) and the MIC (S. aureus; Staphylococcus aureus clinical isolate BF5 (Table 5), read-out: Drug MIC) was > 64 µg/mL. For the same compound, the MIC (S. aureus; Staphylococcus aureus clinical isolate BF6 (Table 5), read-out: Drug MIC) was 1 µg/mL (≈ 2.49 µM), the MIC (S. aureus; Staphylococcus aureus clinical isolate BF7 (Table 5), read-out: Drug MIC) was > 64 µg/mL and the MIC (S. aureus; Staphylococcus aureus clinical isolate BF8 (Table 5), read-out: Drug MIC) was > 64 µg/mL. For the same compound, the MIC (S. aureus; Staphylococcus aureus clinical isolate BF9 (Table 5), read-out: Drug MIC) was 0.25 µg/mL (≈ 0.623 µM), the MIC (S. aureus; Staphylococcus aureus clinical isolate BF10 (Table 5), read-out: Drug MIC) was > 64 µg/mL and the MIC (S. aureus; Staphylococcus aureus clinical isolate BF11 (Table 5), read-out: Drug MIC) was > 64 µg/mL. The MIC (E. faecium; E. faecium C68, read-out: Minimum inhibitory concentration) was > 64 µg/mL, the MIC (E. faecium; E. faecium D14, read-out: Minimum inhibitory concentration) was > 64 µg/mL and the MIC (E. faecium; E. faecium D24, read-out: Minimum inhibitory concentration) was > 64 µg/mL. For the same compound, the MIC (E. faecium; E. faecium D25, read-out: Minimum inhibitory concentration) was > 64 µg/mL, the MIC (E. faecium; E. faecium D29, read-out: Minimum inhibitory concentration) was > 64 µg/mL and the MIC (E. faecium; E. faecium E007, read-out: Minimum inhibitory concentration) was > 64 µg/mL. The MIC (E. faecium; E. faecium WB213, read-out: Minimum inhibitory concentration) was > 64 µg/mL, the MIC (E. faecium; E. faecium WC176, read-out: Minimum inhibitory concentration) was > 64 µg/mL and the MIC (E. faecium; Enterococcus faecium clinical isolate C68 (Table 6), read-out: Drug MIC) was > 64 µg/mL. The MIC (E. faecium; Enterococcus faecium clinical isolate D14 (Table 6), read-out: Drug MIC) was 2 µg/mL (≈ 4.98 µM), the MIC (E. faecium; Enterococcus faecium clinical isolate D24 (Table 6), read-out: Drug MIC) was 1 µg/mL (≈ 2.49 µM) and the MIC (E. faecium; Enterococcus faecium clinical isolate D25 (Table 6), read-out: Drug MIC) was 1 µg/mL (≈ 2.49 µM). The MIC (E. faecium; Enterococcus faecium clinical isolate D29 (Table 6), read-out: Drug MIC) was 2 µg/mL (≈ 4.98 µM), the MIC (E. faecium; Enterococcus faecium clinical isolate W312 (Table 6), read-out: Drug MIC) was > 64 µg/mL and the MIC (E. faecium; Enterococcus faecium clinical isolate WC176 (Table 6), read-out: Drug MIC) was > 64 µg/mL. For the same compound, the MIC (K. pneumonia WGLW2) was > 64 µg/mL, the MIC (A. baumannii) was > 64 µg/mL and the MIC (P. aeruginosa) was > 64 µg/mL. For the same compound, the MIC (E. aerogenes ATCC 13048) was > 64 µg/mL.
